Data on one compound can be found in PMC12163657 (ACS Omega, 2025).

For series [1], the target named is T1, ERα LBD (Homo sapiens, UniProt P03372).
T1 sequence (P03372 311-547 limits assumed): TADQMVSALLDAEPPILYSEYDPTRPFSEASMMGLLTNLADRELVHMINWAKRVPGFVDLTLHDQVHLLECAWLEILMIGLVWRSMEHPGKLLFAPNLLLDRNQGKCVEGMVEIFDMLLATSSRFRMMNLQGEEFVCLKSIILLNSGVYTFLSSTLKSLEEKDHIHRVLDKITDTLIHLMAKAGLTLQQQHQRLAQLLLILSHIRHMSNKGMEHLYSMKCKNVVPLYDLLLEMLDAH
The experiment in a line: LanthaScreen TR-FRET ERα competitive binding assay. For orientation: In TR-FRET formats the signal depends on donor and acceptor labels being close together.

Series [2] is described as follows: Plasma protein binding, rapid equilibrium dialysis, human plasma. The format is in vitro ADME.
In series [3] the test system is E2-induced uterine wet weight. The series is described as follows: Ovariectomized mouse uterine wet weight study. Type of series: in vivo. The following applies: dose giving 50% inhibition of E2-induced uterine wet weight; oral, once daily, 3 days.
Series [4] deals with T2, ESR1 Tyr537Ser (Homo sapiens, UniProt P03372, Y537S).
T2 sequence (P03372 1-595 Y537S): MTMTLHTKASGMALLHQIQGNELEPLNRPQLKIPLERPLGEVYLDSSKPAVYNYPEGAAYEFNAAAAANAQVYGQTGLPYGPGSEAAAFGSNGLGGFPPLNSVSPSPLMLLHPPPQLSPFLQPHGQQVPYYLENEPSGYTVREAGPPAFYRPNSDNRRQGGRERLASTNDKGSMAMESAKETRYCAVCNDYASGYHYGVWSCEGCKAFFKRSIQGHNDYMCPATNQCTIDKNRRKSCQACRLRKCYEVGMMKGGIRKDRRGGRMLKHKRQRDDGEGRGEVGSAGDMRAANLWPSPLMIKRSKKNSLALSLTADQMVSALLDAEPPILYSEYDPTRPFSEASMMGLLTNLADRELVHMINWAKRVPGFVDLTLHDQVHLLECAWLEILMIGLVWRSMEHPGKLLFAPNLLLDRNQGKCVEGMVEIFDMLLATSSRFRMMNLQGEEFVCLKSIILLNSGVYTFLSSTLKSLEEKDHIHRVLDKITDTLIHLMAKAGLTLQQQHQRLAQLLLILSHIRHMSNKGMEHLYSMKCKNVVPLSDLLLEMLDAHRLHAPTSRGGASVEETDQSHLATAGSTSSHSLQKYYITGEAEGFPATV
The series is described as follows: AP. The format is cell-based.

Series [5] can be described thus: Plasma protein binding, rapid equilibrium dialysis, rat plasma. The format is in vitro ADME. (In general: In equilibrium dialysis only unbound substance equilibrates across the membrane.)
In series [6] the target is T3, GR (Homo sapiens, UniProt P04150).
T3 sequence (P04150 1-777): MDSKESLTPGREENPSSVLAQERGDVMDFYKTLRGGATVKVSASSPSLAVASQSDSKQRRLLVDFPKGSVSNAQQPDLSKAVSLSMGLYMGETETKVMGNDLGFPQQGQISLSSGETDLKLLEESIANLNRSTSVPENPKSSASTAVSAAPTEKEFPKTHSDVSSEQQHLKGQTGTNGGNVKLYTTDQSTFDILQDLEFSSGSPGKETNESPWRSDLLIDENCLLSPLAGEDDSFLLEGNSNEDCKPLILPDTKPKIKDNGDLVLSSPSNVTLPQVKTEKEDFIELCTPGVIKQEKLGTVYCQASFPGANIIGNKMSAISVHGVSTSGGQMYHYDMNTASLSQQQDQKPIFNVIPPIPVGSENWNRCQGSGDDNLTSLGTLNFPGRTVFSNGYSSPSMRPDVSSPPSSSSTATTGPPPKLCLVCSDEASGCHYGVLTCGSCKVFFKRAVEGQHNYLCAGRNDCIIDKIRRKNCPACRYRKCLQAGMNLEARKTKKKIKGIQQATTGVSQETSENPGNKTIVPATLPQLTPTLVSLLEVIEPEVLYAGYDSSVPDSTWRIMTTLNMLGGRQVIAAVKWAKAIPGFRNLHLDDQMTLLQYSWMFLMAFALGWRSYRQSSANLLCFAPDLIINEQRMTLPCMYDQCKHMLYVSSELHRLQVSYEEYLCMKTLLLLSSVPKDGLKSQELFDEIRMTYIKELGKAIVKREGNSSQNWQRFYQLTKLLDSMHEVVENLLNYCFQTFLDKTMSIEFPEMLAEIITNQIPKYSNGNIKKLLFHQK
The series is described as follows: Reporter assay of gene transcription activity, GR. Type of series: cell-based. On the technique in general: In a reporter assay the amount or activity of a reporter protein is the signal.

Series [7] addresses T4, AR (Homo sapiens, UniProt P10275).
T4 sequence (P10275 1-920): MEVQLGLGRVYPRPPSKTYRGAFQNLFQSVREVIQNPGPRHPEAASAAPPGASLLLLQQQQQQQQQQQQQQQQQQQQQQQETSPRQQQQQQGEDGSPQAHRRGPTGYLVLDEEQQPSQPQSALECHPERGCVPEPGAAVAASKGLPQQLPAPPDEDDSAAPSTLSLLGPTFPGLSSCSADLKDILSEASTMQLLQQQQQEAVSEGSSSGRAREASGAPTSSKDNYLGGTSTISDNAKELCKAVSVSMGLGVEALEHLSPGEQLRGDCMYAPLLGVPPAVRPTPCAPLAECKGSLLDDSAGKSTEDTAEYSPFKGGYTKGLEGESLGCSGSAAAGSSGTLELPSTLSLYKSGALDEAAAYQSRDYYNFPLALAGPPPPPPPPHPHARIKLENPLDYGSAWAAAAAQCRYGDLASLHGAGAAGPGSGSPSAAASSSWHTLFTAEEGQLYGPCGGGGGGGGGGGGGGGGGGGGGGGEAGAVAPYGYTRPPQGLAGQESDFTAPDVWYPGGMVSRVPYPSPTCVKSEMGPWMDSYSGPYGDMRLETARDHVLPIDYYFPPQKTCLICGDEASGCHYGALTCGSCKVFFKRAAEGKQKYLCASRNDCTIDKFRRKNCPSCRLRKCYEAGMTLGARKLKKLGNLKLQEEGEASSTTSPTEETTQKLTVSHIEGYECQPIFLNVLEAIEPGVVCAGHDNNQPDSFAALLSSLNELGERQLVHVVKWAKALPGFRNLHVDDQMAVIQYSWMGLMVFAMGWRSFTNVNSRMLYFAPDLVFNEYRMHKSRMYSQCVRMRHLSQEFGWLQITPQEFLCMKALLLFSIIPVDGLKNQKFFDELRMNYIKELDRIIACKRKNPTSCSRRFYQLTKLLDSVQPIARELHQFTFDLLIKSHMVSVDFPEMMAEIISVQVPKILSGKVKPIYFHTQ
The experiment in a line: Reporter assay of gene transcription activity, AR. Type of series: cell-based. The following applies: for IC50: reporter assay.

Series [8] in a line: In vivo mouse oral single dose PK.
Series [9] in a line: Mouse hepatocyte stability. The format is in vitro ADME. The following applies: hepatocytes.

Usually IC50 stands for the concentration needed to halve the response being measured. Read a high IC50 as weaker potency in that assay. Usually Cmax stands for the peak of the concentration-time curve. As usually defined, the half-life is how long it takes for the measured level to halve. Broadly, the hepatocyte CLint is the rate of metabolic loss divided by the concentration. Read a low hepatocyte CLint as slow turnover. For the compound `CCCN1CC(Oc2ccc([C@@H]3c4[nH]c5ccccc5c4C[C@@H](C)N3CC(C)(C)F)cc2)C1` [compound 21, (1R,3R)-2-(2-Fluoro-2-methylpropyl)-3-methyl-1-(4-((1-propylazetidin-3-yl)oxy)phenyl)-2,3,4,9-tetrahydro-1H-pyrido[3,4-b]indole], the IC50 was 2 nM in [1]; 50.1 nM in series [4]; over 3160 nM in [6]; over 3160 nM in [7] (AR pIC50, agonist mode, agonist mode); 1580 nM in series [7] (AR pIC50, antag. mode, antag. mode (agonist-induced activity)). In series [2] (across all species, including humans), the plasma protein-bound is reported as over 99%. Besides, the “Plasma free drug percentage” value in series [2] (hu plasma) is 0.08%; in [5], 0.24%. The “uterine wet weight ID50” value in series [3] is under 1 µg/kg. The “agonist cross-reactivity on GR” value in series [6] (in words) is “no agonist cross-reactivity”. In series [6] (reporter assay, antag. mode), the “GR pIC50, antag. mode” value is reported as under 5.5. Further, in series [7] (in words), the “agonist cross-reactivity on AR” value is given as “no agonist cross-reactivity”. Besides, the “total AUCinf” value in series [8] (oral single dose) came out at 2477 ng·h/mL. For the same compound, the “free AUCinf” value in series [8] (oral single dose, estimated based on the percent free fraction) was 1.5 ng·h/mL. For the same compound, the Cmax in series [8] (plasma, po) was found to be 121 ng/mL. Further, the half-life was 18 h in series [8] (plasma, po) and over 6 h in [9]. In series [9], the hepatocyte CLint is under 3.9 µL/min/1e6 cells.
